According to patent US10493158B2, “Pharmaceutical compositions for the treatment of inflammatory disorders” (GALAPAGOS NV, priority 2014, dated 2019):
Where a name gives a salt, the structure may show the parent alone.

Columns and labels:
[1] = Accelerated stability study of Compound 1.HCl.3H2O (FT-IR, DSC, XRPD); format: physicochemical; details: 3 months
Source text: Samples of [Compound 1. HCl.3H2O] are stored under conditions to evaluate chemical stability and physical stability as described in the table below: [table] Samples are taken at T0, then every month up to 3 months, and analysed by FT-IR, DSC, and XRPD.

[2] = Dog bioavailability study (PK after single oral administration of capsules); format: in vivo, beagle dogs; details: for Cmax / Exposure AUC / Tmax: listed as HCl•trihydrate
Protocol: The dogs are not fasted before dosing, and have free access to water. Every day of the treatment, a half food ration is provided after the T0 blood sampling, 8 to 17 min before treatment, and the second half ration is given just after dosing or 1 h after treatment for period 2. A 3 days washout period is ensured between treatments.
The capsule composition is described in the table below.
The capsules are administered orally with water (5-10 mL), to provide good oesophageal transit. Each animal is checked at least once daily.
Blood is collected from the jugular vein into lithium heparinised tubes at T0 (before food administration) and then at 1 h, 2 h, 4 h, 6 h, 8 h, 10 h, and 24 h post treatment.
Plasma is then obtained from blood by centrifugation (2500 g for 10 min at 4° C.), and stored at −20° C. until analysis.
After vortex mixing and centrifugation at 4° C., the supernatants are diluted with a 0.5 volume of HPLC grade water in a midi-eppendorf 96-well plate. The plate is sealed and shaken to ensure sample homogeneity prior to analysis.
Pharmacokinetic analysis is performed using WinNonlin™ software version 5.3, using concentrations from individual animals. Non-compartmental analysis is applied to determine the PK parameters (Cmax, Tmax, AUC0-last, t1/2, etc . . . )
Concentrations below the limit of detection are set to zero for descriptive statistics and PK parameter calculations.

[3] = Salt study: XRPD analysis / hygroscopicity of the hydrochloric acid salt; format: physicochemical; details: salt containing 4-5% water
Protocol: (§1) The mixture is cooled to 25° C. at 1° C./min and stirred at 25° C. for 22 h. The solid is isolated by vacuum filtration and dried under suction.

[4] = Thermodynamic aqueous solubility by HPLC; format: physicochemical; details: water
Protocol: as §1

[5] = dogs, oral capsules, on average and at the 2 capsule strengths
[6] = male beagle dogs, single oral administration, capsules, dose 25 mg/kg
[7] = male beagle dogs, single oral administration, capsules, dose 100 mg/kg

O=C(Nc1nc2cccc(-c3ccc(CN4CCS(=O)(=O)CC4)cc3)n2n1)C1CC1 [Compound 1.HCl.3H2O, cyclopropanecarboxylic acid {5-[4-(1,1-dioxo-thiomorpholin-4-ylmethyl)-phenyl]-[1,2,4]triazolo[1,5-a]pyridin-2-yl}-amide]
chemical and physical stability ([1]; 25° C./60% RH open, 40° C./75% RH open, 50° C. closed, RT/<5%, 56%, 75% RH open): stable under all conditions
change in crystallinity ([1]; all storage conditions of Table VI): no change in crystallinity
half-life ([2]; dog, plasma, male beagle dogs, single oral administration, one range printed across both forms and both doses): 4.43 to 8.96 h
in vivo exposure compared with Compound 1 (free base) [2, 5]: improved exposure
rate of absorption compared with Compound 1 (free base) [2, 5]: more rapidly absorbed
Cmax [2, 6]: 3050 ng/mL
Exposure AUC [2, 6]: 33600 ng·h/mL
Tmax [2, 6]: 2.0 h
Cmax [2, 7]: 2630 ng/mL
Exposure AUC [2, 7]: 21700 ng·h/mL
Tmax [2, 7]: 2.0 h

O=C(Nc1nc2cccc(-c3ccc(CN4CCS(=O)(=O)CC4)cc3)n2n1)C1CC1 [Compound 1, cyclopropanecarboxylic acid {5-[4-(1,1-dioxo-thiomorpholin-4-ylmethyl)-phenyl]-[1,2,4]triazolo[1,5-a]pyridin-2-yl}-amide]
AUC ([2]; male, beagle, dog, plasma, po, 100 mg/kg, male beagle dogs, single oral administration, capsules, dose 100 mg/kg, read-out: Exposure AUC): 11100 ng·h/mL

O=C(Nc1nc2cccc(-c3ccc(CN4CCS(=O)(=O)CC4)cc3)n2n1)C1CC1 [hydrochloric acid salt of Compound 1, cyclopropanecarboxylic acid {5-[4-(1,1-dioxo-thiomorpholin-4-ylmethyl)-phenyl]-[1,2,4]triazolo[1,5-a]pyridin-2-yl}-amide]
hygroscopicity of the salt [3]: non-hygroscopic
solubility [4]: 1900 µg/mL
